Source: PMC6028563, “Probing Substituents in the 1- and 3-Position: Tetrahydropyrazino-Annelated Water-Soluble Xanthine Derivatives as Multi-Target Drugs With Potent Adenosine Receptor Antagonistic Activity” (Frontiers in Chemistry, 2018)

Tests used:
human A1 AR = target: T1, human A1 AR (Homo sapiens, UniProt P30542); experiment: Radioligand binding assay at human A1 AR vs. [^3H]CCPA; conditions: human (h); CHO cell membranes; n = 3
T1 construct: expressed in transfected cells; host or cells: CHO cells
T1 sequence (P30542 1-326): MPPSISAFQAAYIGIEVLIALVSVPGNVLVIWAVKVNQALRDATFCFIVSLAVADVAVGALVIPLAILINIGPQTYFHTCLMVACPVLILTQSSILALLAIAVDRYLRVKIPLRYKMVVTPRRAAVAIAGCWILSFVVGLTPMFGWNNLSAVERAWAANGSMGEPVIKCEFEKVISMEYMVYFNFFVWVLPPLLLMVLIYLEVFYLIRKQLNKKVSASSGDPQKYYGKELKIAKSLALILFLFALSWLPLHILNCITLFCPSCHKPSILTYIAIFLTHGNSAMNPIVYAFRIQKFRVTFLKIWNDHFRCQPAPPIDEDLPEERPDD
Experimental: (§1) Membrane preparations and radioligand binding assays at rat A1 (rat brain cortex) and rat A2A ARs (rat brain striatum) were performed as previously described (Ozola et al., [2003]; Alnouri et al., [2015]). For assays at human A1, A2A, A2B, and A3 ARs, CHO cell membranes expressing one of the human AR subtypes were used as previously reported (Klotz et al., [1998]; Alnouri et al., [2015]; De Filippo et al., [2016]).
(§2) The synthesized tetrahydropyrazino[2,1-f ]purinediones 13–20 were evaluated in radioligand binding assays for their affinity to A1 ARs of rat brain cortical membrane and to A2A ARs of rat brain striatal membrane preparations. Selected compounds were further investigated for their affinity to human A1 and A2A ARs recombinantly expressed in Chinese hamster ovary (CHO) cells. All compounds were additionally investigated for their affinity to human A2B and A3 ARs recombinantly expressed in CHO cells to determine their AR subtype selectivity. […] It is well known that all xanthine derivatives lacking a ribose moiety, including tricyclic compounds, can only block ARs, but never act as AR agonists; therefore, additional functional studies were not required. […] Potent MAO-B inhibitors were additionally investigated for inhibition of human MAO-A to assess their selectivity. Results are presented in Tables 1–6, and data of standard ligands are included for comparison.

rat A1 AR = target: T2, rat A1 AR (Rattus norvegicus, UniProt P25099); experiment: Radioligand binding assay at rat A1 AR (rat brain cortex) vs. [^3H]CCPA; conditions: rat (r); rat brain cortex; n = 3
T2 construct: A1 ARs of rat brain cortical membrane; from tissue; host or cells: rat brain cortex membranes
T2 sequence (P25099 1-326): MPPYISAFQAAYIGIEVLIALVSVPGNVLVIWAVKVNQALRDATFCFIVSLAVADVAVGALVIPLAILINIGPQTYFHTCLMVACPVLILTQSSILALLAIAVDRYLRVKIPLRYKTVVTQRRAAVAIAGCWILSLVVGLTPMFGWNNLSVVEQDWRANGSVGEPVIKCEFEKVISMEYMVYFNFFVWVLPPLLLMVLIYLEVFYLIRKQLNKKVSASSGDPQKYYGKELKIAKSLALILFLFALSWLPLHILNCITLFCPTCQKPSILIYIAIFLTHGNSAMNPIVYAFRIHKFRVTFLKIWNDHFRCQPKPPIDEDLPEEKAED
Method in brief: (§3)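 Membranes of CHO cells recombinantly expressing single human AR subtypes served for human assays, A2B competed against [^3H]PSB-603. Native rat tissue was used otherwise: cortical membranes with [^3H]CCPA for A1, striatal membranes with [^3H]MSX-2 for A2A.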

human A2A AR = target: T3, human A2A AR (Homo sapiens, UniProt P29274); experiment: Radioligand binding assay at human A2A AR vs. [^3H]MSX-2; conditions: CHO cell membranes, n = 3, read-out: Ki ± SEM, A2A vs. [^3H]MSX-2
T3 construct: expressed in transfected cells; host or cells: CHO cells
Experimental: as §1, §2

rat A2A AR = target: T4, rat A2A AR (Rattus norvegicus, UniProt P30543); experiment: Radioligand binding assay at rat A2A AR (rat brain striatum) vs. [^3H]MSX-2; conditions: rat (r); rat brain striatum; n = 3; read-out: Ki ± SEM, A2A vs. [^3H]MSX-2
T4 construct: A2A ARs of rat brain striatal membrane preparations; from tissue; host or cells: rat brain striatum membranes
Method in brief: as §3

human A2B AR = target: T5, human A2B AR (Homo sapiens, UniProt P29275); experiment: Radioligand binding assay at human A2B AR vs. [^3H]PSB-603; conditions: for Ki: CHO cell membranes, n = 2 (n = 3 where marked a), read-out: Ki ± SEM, A2B vs. [^3H]PSB-603; for inhibition at 1 µM: at 1,000 nM, read-out: % inhibition of radioligand binding at indicated concentration, A2B vs. [^3H]PSB-603
T5 construct: expressed in transfected cells; host or cells: CHO cells
T5 sequence (P29275 1-332): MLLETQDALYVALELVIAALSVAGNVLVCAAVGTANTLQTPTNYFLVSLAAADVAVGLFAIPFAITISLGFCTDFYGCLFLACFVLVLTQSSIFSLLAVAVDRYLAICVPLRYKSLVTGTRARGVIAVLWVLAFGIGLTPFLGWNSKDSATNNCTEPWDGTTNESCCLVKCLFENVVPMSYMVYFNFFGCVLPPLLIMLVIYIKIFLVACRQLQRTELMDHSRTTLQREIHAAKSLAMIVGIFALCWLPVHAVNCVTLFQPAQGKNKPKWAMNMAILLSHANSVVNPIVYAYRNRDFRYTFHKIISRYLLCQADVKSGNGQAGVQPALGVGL
Method in brief: as §3

human A3 AR = target: T6, human A3 AR (Homo sapiens, UniProt P0DMS8); experiment: Radioligand binding assay at human A3 AR vs. [^3H]PSB-11; conditions: for Ki: CHO cell membranes, n = 2 (n = 3 where marked a), read-out: Ki ± SEM, A3 vs. [^3H]PSB-11; for inhibition at 10 µM: at 10,000 nM, read-out: % inhibition of radioligand binding at indicated concentration, A3 vs. [^3H]PSB-11
T6 construct: expressed in transfected cells; host or cells: CHO cells
T6 sequence (P0DMS8 1-318): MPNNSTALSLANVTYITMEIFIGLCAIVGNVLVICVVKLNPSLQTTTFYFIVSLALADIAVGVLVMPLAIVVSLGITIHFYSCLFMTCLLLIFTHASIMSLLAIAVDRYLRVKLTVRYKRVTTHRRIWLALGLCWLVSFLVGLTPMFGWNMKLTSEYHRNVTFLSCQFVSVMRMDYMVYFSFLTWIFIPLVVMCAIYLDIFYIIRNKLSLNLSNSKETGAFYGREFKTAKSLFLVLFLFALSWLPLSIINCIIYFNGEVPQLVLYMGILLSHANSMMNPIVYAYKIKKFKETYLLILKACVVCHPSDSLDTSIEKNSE
Method in brief: as §3

recombinant human MAO-B = target: T7, recombinant human MAO-B (Homo sapiens, UniProt P27338); experiment: Monoamine oxidase assay (Amplex Red), MAO-B; assay type: biochemical; conditions: for inhibition at 10 µM: at 10,000 nM (10 μM), read-out: % inhibition at indicated concentration, Human MAO-B; for IC50: n = 3, read-out: IC50 ± SEM, Human MAO-B
T7 construct: purchased Sigma-Aldrich M7441; host or cells: baculovirus-infected insect cells
T7 sequence (P27338 1-520): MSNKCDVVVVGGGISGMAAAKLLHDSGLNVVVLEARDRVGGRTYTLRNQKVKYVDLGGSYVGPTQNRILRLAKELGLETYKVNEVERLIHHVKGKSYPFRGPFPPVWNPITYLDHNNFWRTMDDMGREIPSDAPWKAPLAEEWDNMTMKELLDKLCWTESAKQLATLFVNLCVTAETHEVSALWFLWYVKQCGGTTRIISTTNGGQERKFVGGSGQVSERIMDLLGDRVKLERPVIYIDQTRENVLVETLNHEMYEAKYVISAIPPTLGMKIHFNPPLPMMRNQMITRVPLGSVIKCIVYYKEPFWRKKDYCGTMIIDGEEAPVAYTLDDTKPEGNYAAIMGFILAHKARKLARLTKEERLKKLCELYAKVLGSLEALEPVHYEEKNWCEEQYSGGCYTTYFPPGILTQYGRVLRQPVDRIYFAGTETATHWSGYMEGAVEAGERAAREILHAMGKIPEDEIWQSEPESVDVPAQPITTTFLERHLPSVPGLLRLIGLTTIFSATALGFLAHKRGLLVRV
Method in brief: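 Inhibition was measured with an Amplex Red monoamine oxidase assay, using human MAO-A and MAO-B produced recombinantly in baculovirus-infected insect cells. For rat MAO-B, liver mitochondria-enriched fractions from male Sprague Dawley rats served as enzyme source.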

T4 sequence (P30543 whole entry): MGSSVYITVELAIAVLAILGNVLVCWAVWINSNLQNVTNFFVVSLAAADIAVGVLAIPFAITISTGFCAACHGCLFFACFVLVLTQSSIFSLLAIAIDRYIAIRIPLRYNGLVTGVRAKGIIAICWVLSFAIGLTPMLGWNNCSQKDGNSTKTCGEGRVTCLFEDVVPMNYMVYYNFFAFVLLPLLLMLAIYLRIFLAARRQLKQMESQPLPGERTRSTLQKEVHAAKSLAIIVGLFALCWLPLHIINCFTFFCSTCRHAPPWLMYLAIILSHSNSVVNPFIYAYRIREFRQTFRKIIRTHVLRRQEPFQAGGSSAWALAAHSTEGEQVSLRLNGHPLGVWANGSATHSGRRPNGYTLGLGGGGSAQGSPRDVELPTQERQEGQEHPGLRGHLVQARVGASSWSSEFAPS
T3 sequence (P29274 whole entry): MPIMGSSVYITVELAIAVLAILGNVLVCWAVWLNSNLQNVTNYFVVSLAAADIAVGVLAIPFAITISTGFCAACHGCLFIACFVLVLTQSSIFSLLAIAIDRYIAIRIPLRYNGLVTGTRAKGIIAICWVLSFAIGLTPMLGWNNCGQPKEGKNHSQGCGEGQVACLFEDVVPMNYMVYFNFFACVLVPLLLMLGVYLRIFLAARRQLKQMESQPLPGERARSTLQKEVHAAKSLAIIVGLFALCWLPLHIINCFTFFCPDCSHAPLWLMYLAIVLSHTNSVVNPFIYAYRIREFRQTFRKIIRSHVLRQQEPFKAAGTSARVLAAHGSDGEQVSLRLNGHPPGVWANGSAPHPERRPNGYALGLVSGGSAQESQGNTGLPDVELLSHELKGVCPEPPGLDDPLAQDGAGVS

| Ki (human A1 AR) [nM] | Ki (rat A1 AR) [nM] | Ki (human A2A AR) [nM] | Ki (rat A2A AR) [nM] | Ki (human A2B AR) [nM] | inhibition at 1 µM (human A2B AR) [%] | Ki (human A3 AR) [nM] | inhibition at 10 µM (recombinant human MAO-B) [%] | IC50 (recombinant human MAO-B) [nM] | inhibition at 10 µM (human A3 AR) [%] | SMILES |
| --- | --- | --- | --- | --- | --- | --- | --- | --- | --- | --- |
| 1260 | 701 ± 204 | 3230 | 883 ± 265 | > 1000 | 24 | 5830 | 26 | > 10000 |  | C#CCn1c(=O)c2c(nc3n2CCN(CCc2ccccc2OC)C3)n(CC)c1=O [Compound 20i, 1-ethyl-8-(2-methoxyphenethyl)-3-propargyl-6,7,8,9-tetrahydropyrazino[2,1-f]purine-2,4(1H,3H)-dione] |
| 124 ± 90 | 118 ± 22 | 542 ± 169 | 769 ± 77 | > 1000 | 22 | > 10000 | 41 | > 10000 | 40 | C#CCn1c(=O)c2c(nc3n2CCN(Cc2cccc(OC)c2)C3)n(CC)c1=O [Compound 20g, 1-ethyl-8-(3-methoxybenzyl)-3-propargyl-6,7,8,9-tetrahydropyrazino[2,1-f]purine-2,4(1H,3H)-dione] |
| 1020 | 669 ± 35 | 25500 | 798 ± 134 | > 1000 | 11 | > 10000 | 30 | > 10000 | 13 | C#CCn1c(=O)c2c(nc3n2CCN(CCc2cccc(OC)c2)C3)n(CC)c1=O [Compound 20j, 1-ethyl-8-(3-methoxyphenethyl)-3-propargyl-6,7,8,9-tetrahydropyrazino[2,1-f]purine-2,4(1H,3H)-dione] |
| 2440 | 117 ± 2 | 149 ± 28 | 1700 | > 1000 | 16 | > 10000 | 27 | > 10000 | 36 | C#CCn1c(=O)c2c(nc3n2CCN(CCc2ccccc2)C3)n(CC)c1=O [Compound 20h, 1-ethyl-8-phenethyl-3-propargyl-6,7,8,9-tetrahydropyrazino[2,1-f]purine-2,4(1h,3h)-dione] |

Continued, compound first:

| SMILES | Ki (human A1 AR) [nM] | Ki (rat A1 AR) [nM] | Ki (human A2A AR) [nM] | Ki (rat A2A AR) [nM] | Ki (human A2B AR) [nM] | inhibition at 1 µM (human A2B AR) [%] | Ki (human A3 AR) [nM] | inhibition at 10 µM (recombinant human MAO-B) [%] | IC50 (recombinant human MAO-B) [nM] | inhibition at 10 µM (human A3 AR) [%] |
| --- | --- | --- | --- | --- | --- | --- | --- | --- | --- | --- |
| C#CCn1c(=O)c2c(nc3n2CCN(c2ccc(F)cc2)C3)n(CC)c1=O [Compound 20b, 1-ethyl-8-(4-fluorophenyl)-3-propargyl-6,7,8,9-tetrahydropyrazino[2,1-f]purine-2,4(1H,3H)-dione] | 1530 | 410 ± 60 | 378 ± 49 | 128 ± 20 | > 1000 | 15 | 2390 | 35 | > 10000 |  |
| C#CCn1c(=O)c2c(nc3n2CCN(Cc2ccccc2OC)C3)n(CC)c1=O [Compound 20f, 1-ethyl-8-(2-methoxybenzyl)-3-propargyl-6,7,8,9-tetrahydropyrazino[2,1-f]purine-2,4(1H,3H)-dione] | 210 ± 90 | 32.7 ± 5.8 | 311 ± 106 | 1200 | > 1000 | 18 | 7640 | 27 | > 10000 |  |
| CCn1c(=O)c2c(nc3n2CCN(Cc2cc(F)cc(C(F)(F)F)c2)C3)n(C)c1=O [Compound 14p, 3-ethyl-8-(3-fluoro-5-(trifluoromethyl)benzyl)-1-methyl-6,7,8,9-tetrahydropyrazino[2,1-f]purine-2,4(1H,3H)-dione] | 330 ± 67 | 111 ± 25 | 503 ± 121 | 801 ± 99 | > 1000 | 5 | > 10000 | 23 | > 10000 | 39 |
| C#CCn1c(=O)c2c(nc3n2CCN(Cc2ccccc2)C3)n(CC)c1=O [Compound 20e, 8-benzyl-1-ethyl-3-propargyl-6,7,8,9-tetrahydropyrazino[2,1-f]purine-2,4(1H,3H)-dione] | 180 ± 28 | 118 ± 28 | 282 ± 38 | 245 ± 39 | > 1000 | 2 | > 10000 | 20 | > 10000 | 35 |
